Test results from patent US20180369268A1, “METHODS FOR IDENTIFYING INHIBITORS OF "STIMULATOR OF INTERFERON GENE"- DEPENDENT INTERFERON PRODUCTION” (ADURO BIOTECH, INC., priority 2015, published 2018).

What was measured:
hSTING REF allele = biological target: T1, hSTING REF allele (Homo sapiens, UniProt Q86WV6); experiment: Differential scanning fluorometry (DSF) Tm shift with purified STING AA140-379; assay type: binding; conditions: ligand 1 mM, 1 mg/ml STING AA140-379
T1 construct: DNA encoding amino acids 140-379 (amino acid numbering corresponding to Swiss Prot Q86WV6); 6xHIS-SUMO (with TEV site) (N, cleaved yes); made in house; host or cells: Rosetta2 (DE3) E. coli
From the text: (§1) DNA encoding amino acids 140-379 (amino acid numbering corresponding to Swiss Prot Q86WV6) was amplified from plasmids containing the full length sequence of human STING alleles via polymerase chain reaction with the following primers: forward […] (SEQ ID NO: 9) and reverse […] (SEQ ID NO: 10). STING variant alleles were assigned according to Yi, et al, (2013), PLoS One, 8(10), e77846 (DOI: 10.1371/journal.pone.0077846. PCR products were cloned into bacterial expression vector encoding a N-terminal hexa-histidine affinity tag (6×HIS) followed by a small ubiquitin-like modifier (SUMO) solubility sequence (Butt, et al, (2005) Protein expression and purification 43.1, 1-9) and tobacco etch virus protease cleavage site (TEV) using ligation independent cloning (Aslanidis, et al, (1990) Nucleic acids research, 18.20, 6069-6074).
(§2) Plasmids encoding 6×HIS-SUMO-TEV-STING amino acids 140-379 were transformed into Rosetta2 (DE3) E. coli cells (EMD Millipore) for protein expression. Cells were grown in lysogeny broth at 37° C. until a […] absorbance of 0.6 was reached. Cells were then transferred to 18° C. and protein expression was induced overnight by the addition of isopropyl β-D-1-thiogalactopyranoside to the media at a concentration of 0.25 mM. Cells were harvested by centrifugation at 6,000 times gravity for 10 minutes. Cell pellets were re-suspended on ice in a buffer containing 50 mM Tris hydrochloride (Tris-HCl) pH 7.5, 500 mM sodium chloride (NaCl), 20 mM imidazole, 10% glycerol, 1 mM tris(2-carboxyethyl)phosphine hydrochloride (TCEP) and protease inhibitor tablet (Pierce) (Buffer A). Cells were lysed using an S-450D sonifier (Emmerson industrial) on ice. Cell lysate was centrifuged at 15,000 times gravity for 30 minutes at 4° C. Soluble material was applied to nickel-nitrilotriacetic acid (Ni-NTA) coupled Sepharose CL-6B (Qiagen) for 1 hour with gentle rocking at 4° C. After transfer to a gravity flow poly-prep column (Bio-Rad), resin was washed extensively in buffer A. Protein was eluted from the column in a buffer containing 20 mM Tris-HCl pH 7.5, 150 mM NaCl, 300 mM imidazole, 10% glycerol and 0.5 mM TCEP. To remove the 6×HIS-SUMO tag eluted protein was mixed with TEV protease (Sigma) at a ratio of 1:250 (w:w) and dialyzed overnight against a buffer containing 20 mM Tris-HCl pH 7.5, 150 mM NaCl, 5 mM imidazole, 10% glycerol and 0.5 mM TCEP. TEV protease and 6×HIS-SUMO tags were depleted by the addition of Ni-NTA resin (Qiagen) to the sample, purified STING amino acids 140-379 was collected by removal of the resin using a poly-prep column STING AA140-379 was concentrated with a 10,000 Dalton molecular weight cutoff centrifuge concentrator (EMD Millipore) to a final concentration of approximately 10 mg/ml. Protein was aliquoted, flash frozen in liquid nitrogen and stored at −80° C. until use.
(§3) Differential scanning fluorometry (DSF) is a technique that measures the ability of ligands to bind to and stabilize purified proteins (Niesen, et al, (2007) Nature protocols 2.9, 2212-2221). The protein is heated in the presence of a dye that binds to and fluoresces in hydrophobic environments. The protein is thermally denatured by heating resulting in increased dye binding to the unfolded protein and fluorescence. The temperature midpoint (Tm) of a proteins denaturation is established by calculating the half maximal value of the denaturation curve. The temperature midpoint of the protein in the presence of a ligand is directly related to the affinity of the ligand for the protein and therefore its ability to stabilize the protein at higher temperatures.
(§4) DSF was performed in a 20 μL reaction comprising 20 mM Tris-HCl pH 7.5, 150 mM NaCl, 1:500 dilution of SYPRO Orange (Life Technologies), 1 mg/ml purified STING AA140-379 protein and ligand at a concentration of 1 mM. Wild type hSTING, HAQ allele hSTING and/or REF allele hSTING were used with scaffold molecules of the invention as listed in Table 2.

hSTING WT = biological target: T2, hSTING WT (Homo sapiens, UniProt Q86WV6, H232R); experiment: as above; assay type: binding; conditions: ligand 1 mM, 1 mg/ml STING AA140-379
T2 construct: DNA encoding amino acids 140-379 (amino acid numbering corresponding to Swiss Prot Q86WV6); 6xHIS-SUMO (with TEV site) (N, cleaved yes); made in house; host or cells: Rosetta2 (DE3) E. coli
From the text: as §1, §2, §3, §4

T1 sequence (Q86WV6 140-379): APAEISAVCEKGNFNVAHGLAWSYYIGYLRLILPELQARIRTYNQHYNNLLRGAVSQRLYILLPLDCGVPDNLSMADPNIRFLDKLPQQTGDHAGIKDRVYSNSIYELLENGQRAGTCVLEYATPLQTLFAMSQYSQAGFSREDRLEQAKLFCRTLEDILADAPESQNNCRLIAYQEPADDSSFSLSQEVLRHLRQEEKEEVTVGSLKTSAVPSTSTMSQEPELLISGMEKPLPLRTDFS
T2 sequence (Q86WV6 140-379 H232R): as the sequence (Q86WV6 140-379) above, with H93R counted along it

| Structure (SMILES) | hSTING Tm Shift REF (hSTING REF allele) [°C] | hSTING Tm Shift WT (hSTING WT) [°C] |
| --- | --- | --- |
| Nc1nc(N)c2ncn([C@@H]3O[C@@H]4CO[P@@](=O)(S)O[C@H]5[C@@H](O)[C@H](n6cnc7c(N)nc(N)nc76)O[C@@H]5CO[P@](=O)(S)O[C@H]4[C@H]3O)c2n1 [Compound 23a, (2R,3R,3aS,5R,7aR,9R,10R,10aS,12S,14aR)-2,9-bis(2,6-diamino-9H-purin-9-yl)-3,10-dihydroxy-5,12-dimercaptooctahydro-2H,7H-difuro[3,2-d:3′,2′-j][1,3,7,9]tetraoxa[2,8]diphosphacyclododecine 5,12-dioxide] | 3.1 | 10.0 |
| Nc1nc(N)c2ncn([C@@H]3O[C@@H]4CO[P@@](=O)(S)O[C@H]5[C@@H](O)[C@H](n6cnc7c(N)nc(N)nc76)O[C@@H]5CO[P@@](=O)(S)O[C@H]4[C@H]3O)c2n1 [Compound 23, (2R,3R,3aS,5R,7aR,9R,10R,10aS,12R,14aR)-2,9-bis(2,6-diamino-9H-purin-9-yl)-3,10-dihydroxy-5,12-dimercaptooctahydro-2H,7H-difuro[3,2-d:3′,2′-j][1,3,7,9]tetraoxa[2,8]diphosphacyclododecine 5,12-dioxide] | 8.3 | 12.2 |
| Nc1ncnc2c1ncn2[C@H]1O[C@H]2CO[P@@](=O)(S)O[C@@H]3[C@H](O)[C@@H](n4cnc5c(N)ncnc54)O[C@H]3CO[P@](=O)(S)O[C@@H]2[C@@H]1O [Compound 48a, Triethylammonium (2S,3S,3aR,5R,7aS,9S,10S,10aR,12S,14aS)-2,9-bis(6-amino-9H-purin-9-yl)-3,10-dihydroxyoctahydro-2H, 7H-difuro[3,2-d: 3′,2′-j][1,3,7,9]tetraoxa[2,8]diphosphacyclododecine-5,12-bis(thiolate) 5,12-dioxide] | 6.3 | 2.9 |
| CC(C)(C)[Si](C)(C)O[C@H]1[C@H]2O[P@@](=O)(S)OC[C@H]3O[C@@H](n4cnc5c(N)ncnc54)[C@H](F)[C@@H]3O[P@](=O)(S)OC[C@H]1O[C@H]2n1cnc2c(N)ncnc21 [Compound 6a, dithio-[SP, RP]-cyclic-[3′OTBS-A(2′,5′)p-2′F-A(3′,5′)p]] | 4.8 | 9.0 |
| Nc1ccn([C@@H]2O[C@@H]3CO[P@@](=O)(S)O[C@H]4[C@@H](F)[C@H](n5cnc6c(N)ncnc65)O[C@@H]4CO[P@@](=O)(S)O[C@H]3[C@H]2F)c(=O)n1 [Compound 37, 4-amino-1-((2R,3R,3aR,5R,7aR,9R,10R,10aR,12R,14aR)-9-(6-amino-9H-purin-9-yl) 3,10-difluoro-5,12-dimercapto 5,12-dioxidooctahydro-2H,7H-difuro[3,2-d:3′,2′-j][1,3,7,9]tetraoxa[2,8]diphosphacyclododecin-2-yl)pyrimidin-2(1H)-one] | 7.5 | 8.2 |
| CC(C)C(=O)Nc1nc2c(ncn2[C@@H]2O[C@@H]3CO[P@@](=O)(S)O[C@H]4[C@@H](F)[C@H](n5cnc6c(=O)[nH]c(NC(=O)C(C)C)nc65)O[C@@H]4CO[P@@](=O)(S)O[C@H]3[C@H]2F)c(=O)[nH]1 [Compound 32, N,N′-(((2R,3R,3aR,5R,7aR,9R,10R,10aR,12R,14aR)-3,10-difluoro-5,12-dimercapto-5,12-dioxidooctahydro-2H, 7H-difuro[3,2-d:3′,2′-j][1,3,7,9]tetraoxa[2,8]diphosphacyclododecine-2,9-diyl)bis(6-oxo-6,9-dihydro-1H-purine-9,2-diyl))bis(2-methylpropanamide)] | 10.5 | 10.7 |
| Nc1ncnc2c1ncn2[C@H]1O[C@H]2CO[P@](=O)(S)O[C@@H]3[C@H](O)[C@@H](n4cnc5c(N)ncnc54)O[C@H]3CO[P@](=O)(S)O[C@@H]2[C@@H]1O [Compound 48, (2S,3S,3aR,5S,7aS,9S,10S,10aR,12S,14aS)-2,9-bis(6-amino-9H-purin-9-yl)-3,10-dihydroxy-5,12-dimercaptooctahydro-2H,7H-difuro[3,2-d:3′,2′-j][1,3,7,9]tetraoxa[2,8]diphosphacyclododecine 5,12-dioxide] | 2.3 | 2.0 |
| Nc1ccn([C@@H]2O[C@@H]3CO[P@](=O)(S)O[C@H]4[C@@H](F)[C@H](n5cnc6c(N)ncnc65)O[C@@H]4CO[P@@](=O)(S)O[C@H]3[C@H]2F)c(=O)n1 [Compound 37a, 4-amino-1-((2R,3R,3aR,5R,7aR,9R,10R, 10aR,12S,14aR)-9-(6-amino-9H-purin-9-yl)-3,10-difluoro-5,12-dimercapto-5,12-dioxidooctahydro-2H,7H-difuro[3,2-d: 3′,2′-j][1,3,7,9]tetraoxa[2,8]diphosphacyclododecin-2-yl)pyrimidin-2(1H)-one] | 5.3 | 5.6 |
| Nc1ncnc2c1ncn2[C@H]1O[C@H]2CO[P@@](=O)(S)O[C@@H]3[C@H](O)[C@@H](n4cnc5c(N)ncnc54)O[C@H]3CO[P@@](=O)(S)O[C@@H]2[C@@H]1O [Compound 48b, triethylammonium (2S,3S,3R,5R,7aS,9S,10S,10aR,12R,14aS)-2,9-bis(6-amino-9H-purin-9-yl)-3,10-dihydroxyoctahydro-2H,7H-difuro[3,2-d: 3′,2′-j][1,3,7,9]tetraoxa[2,8]diphosphacyclododecine-5,12-bis(thiolate) 5,12-dioxide] | 6.4 | 3.0 |
